According to the supplement of paper PMC10307832:

What was measured:
Experiment in all cases: relative viability (nuclei count vs DMSO), 5 days (fraction); higher = more cells survive
[1] = compound: CN1CCC(CC1)OC2=CC(=C(C=C2)NC3=NC=C4C(=N3)N(C(=O)N4C)C5CCCC5)OC [AZ3146] + Nc1ncn([C@H]2C[C@H](O)[C@@H](CO)O2)c(=O)n1 [Decitabine] (partner 2 µM)
Summary of the method: (§1)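 One day after seeding in 1536-well plates, lung cancer cell lines were dosed by pin tool. Dosing was either single-drug or a fixed anchor-drug dose plus five library-drug doses (not always all listed) in √10 steps. After 5 days, nuclei were stained in one fix-and-stain step and counted on 4× images, and relative viability is the nuclei count of treated wells over that of vehicle wells, given as the median of duplicate plates.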

[2] = compound: CN1CCC(CC1)OC2=CC(=C(C=C2)NC3=NC=C4C(=N3)N(C(=O)N4C)C5CCCC5)OC [AZ3146] + Cc1cc(Nc2cc(N3CCN(C)CC3)nc(Sc3ccc(NC(=O)C4CC4)cc3)n2)n[nH]1 [Tozasertib] (partner 0.1 µM)
Summary of the method: as §1

[3] = compound: CCOC(=O)CCNc1cc(N2CCc3ccccc3CC2)nc(-c2ccccn2)n1 [GSK-J4] + CS(=O)(=O)CCNCc1ccc(-c2ccc3ncnc(Nc4ccc(OCc5cccc(F)c5)c(Cl)c4)c3c2)o1 [Lapatinib] (partner 2 µM)
Summary of the method: as §1

[4] = compound: CCOC(=O)CCNc1cc(N2CCc3ccccc3CC2)nc(-c2ccccn2)n1 [GSK-J4] + O=C(c1cc(Cc2n[nH]c(=O)c3ccccc23)ccc1F)N1CCN(C(=O)C2CC2)CC1 [Olaparib] (partner 8 µM)
Summary of the method: as §1

Row | Cell Line | relative viability ([1]; first compound 0.08 µM) | relative viability ([1]; first compound 0.253 µM) | relative viability ([1]; first compound 0.8 µM) | relative viability ([1]; first compound 2.53 µM) | relative viability ([1]; first compound 8 µM) | relative viability ([2]; first compound 0.08 µM) | relative viability ([2]; first compound 0.253 µM) | relative viability ([2]; first compound 0.8 µM) | relative viability ([2]; first compound 2.53 µM) | relative viability ([2]; first compound 8 µM) | relative viability ([3]; first compound 0.5 µM) | relative viability ([3]; first compound 1.581 µM) | relative viability ([3]; first compound 5 µM) | relative viability ([3]; first compound 15.81 µM) | relative viability ([3]; first compound 50 µM) | relative viability ([4]; first compound 0.5 µM) | relative viability ([4]; first compound 1.581 µM) | relative viability ([4]; first compound 5 µM) | relative viability ([4]; first compound 15.81 µM) | relative viability ([4]; first compound 50 µM)
1 | 201T | 0.856 | 0.858 | 0.885 | 0.865 | 0.847 | 0.612 | 0.858 | 0.837 | 0.651 | 0.473 | 0.988 | 1.08 | 0.983 | 1.04 | 0.992 | 0.81 | 0.581 | 0.831 | 0.797 | 0.81
2 | A549 | 0.318 | 0.284 | 0.332 | 0.316 | 0.205 | – | – | – | – | – | 0.952 | 1.03 | – | 1.1 | 0.902 | 0.32 | – | 0.29 | 0.31 | 0.392
3 | A-427 | 0.511 | 0.529 | 0.528 | 0.56 | 0.401 | 0.2 | 0.191 | 0.157 | 0.19 | 0.205 | 1.05 | – | 0.913 | 0.976 | 0.847 | 0.714 | 0.701 | – | 0.66 | 0.295
4 | ABC-1 | 1.02 | 1.04 | 1.33 | 1.05 | 1.09 | 0.173 | 0.178 | 0.181 | 0.135 | 0.2 | 1.03 | 1.17 | 1.21 | 0.935 | 1.05 | 0.981 | 0.929 | 0.605 | 0.651 | 0.488
5 | BEN | – | 0.673 | 0.611 | 0.759 | 0.644 | 0.402 | 0.509 | 0.493 | 0.512 | 0.406 | 0.657 | 0.622 | – | 0.764 | 0.635 | 1.18 | 0.99 | 0.776 | 0.954 | 0.779
6 | CAL-12T | – | – | – | – | – | 0.263 | 0.3 | 0.209 | 0.247 | 0.235 | 0.586 | 0.489 | 0.778 | 0.55 | 0.391 | 0.668 | 0.63 | 0.772 | 0.673 | 0.548
7 | COR-L23 | 0.377 | 0.461 | 0.418 | 0.467 | 0.369 | 0.193 | 0.222 | 0.161 | 0.144 | 0.173 | 0.881 | 0.917 | – | 0.927 | 0.615 | 0.279 | 0.311 | – | 0.306 | 0.293
8 | COR-L 105 | 0.647 | 0.55 | 0.632 | 0.622 | 0.549 | 0.409 | 0.335 | 0.304 | 0.293 | 0.309 | 0.398 | 0.317 | 0.35 | 0.319 | 0.35 | 0.701 | – | 0.641 | 0.672 | 0.764
9 | Calu-6 | – | – | – | – | – | – | – | – | – | – | 1 | 1.11 | 1.05 | 1.03 | 1.04 | 0.559 | 0.567 | 0.587 | 0.53 | 0.608
10 | ChaGo-K-1 | 0.509 | 0.502 | 0.509 | 0.531 | 0.501 | 0.192 | 0.229 | 0.22 | 0.235 | 0.206 | – | – | – | – | – | 0.384 | – | 0.441 | 0.354 | 0.275
11 | EBC-1 | – | – | – | – | – | – | – | – | – | – | 0.199 | 0.244 | 0.243 | 0.235 | 0.209 | 0.603 | 0.567 | 0.676 | 0.655 | 0.453
12 | EKVX | 0.285 | 0.304 | 0.381 | 0.319 | 0.286 | 0.314 | 0.399 | 0.364 | 0.378 | 0.232 | 0.216 | 0.205 | 0.261 | 0.197 | 0.171 | 0.867 | – | 0.859 | 0.681 | 0.703
13 | EMC-BAC-2 | – | – | 1.09 | 1.02 | 0.907 | 0.222 | 0.269 | 0.307 | 0.277 | 0.233 | 0.925 | 0.928 | 0.802 | 0.824 | 0.806 | 0.403 | 0.461 | 0.407 | 0.444 | 0.391
14 | EPLC-272H | 0.375 | 0.379 | 0.396 | 0.368 | 0.418 | – | 0.237 | 0.184 | 0.217 | 0.138 | 0.981 | – | 0.919 | 0.89 | 0.679 | 0.722 | 0.825 | 0.676 | 0.652 | 0.289
15 | H3255 | 0.604 | 0.805 | 0.562 | 0.678 | 0.604 | 0.598 | 0.475 | 0.61 | 0.646 | 0.196 | 0.238 | 0.255 | 0.271 | 0.206 | 0.493 | 0.553 | 0.521 | 0.523 | 0.445 | 0.362
16 | HARA | 0.493 | 0.563 | 0.481 | 0.487 | 0.478 | 0.115 | 0.15 | 0.0956 | 0.0781 | 0.0801 | 0.729 | 0.706 | – | 0.699 | 0.554 | 0.767 | 0.761 | – | 0.888 | 0.343
17 | HCC-15 | 0.529 | 0.59 | 0.642 | 0.678 | 0.39 | 0.374 | 0.426 | 0.263 | 0.221 | 0.102 | 0.827 | 0.436 | 0.724 | 0.754 | 0.644 | 0.702 | 0.632 | 0.644 | 0.644 | 0.424
18 | HCC-44 | 0.912 | 0.889 | 1.03 | 0.943 | 0.958 | 0.502 | 0.944 | 0.904 | 0.372 | 0.315 | 0.964 | 0.647 | 0.909 | 1.07 | 0.957 | 0.945 | 0.945 | 0.999 | 1.08 | 0.906
